Results from patent US20240166660A1, “KRAS G12C INHIBITORS” (BeiGene Switzerland GmbH, priority 2021, published 2024).

Target: KRAS (aa 1-169) G12C, C51S, C80L, C118S (Homo sapiens (Human), UniProt P01116, C118S/C51S/C80L/G12C)
Test: Biochemical functional assay: SOS1-mediated nucleotide exchange of GDP-loaded KRAS G12C, binding to GST-cRaf RBD, FRET readout
Conditions: 3 hrs pre-incubation with compound at 24° C., SOS1, GTPyS
Experimental: Biochemical Functional Assay
The KRAS (aa 1-169) G12C, C51S, C80L, C118S with a His-tag was expressed, purified and loaded with GDP in house. All protein and substrate solutions were prepared in assay buffer containing 25 mM HEPES pH7.5, 10 mM MgCl2, and 0.01% Triton X-100. Purified GDP-loaded KRAS (aa 1-169) G12C, C51S, C80L, C118S protein was pre-incubated with a serially diluted compound at 24° C. for 3 hrs. Purified SOS1 (aa 564-1049) protein, GTPyS (Sigma) and GST-cRaf RBD (aa 1-149) were then added to each well and incubated at 24° C. for additional 3 hrs. […] Following the incubation, Mab Anti-6HIS-T cryptate (Cisbio) and Mab Anti GST-XL665 (Cisbio) were added and further incubated at 24° C. for 3 hrs. The binding interaction between active GTPyS KRAS G12C and GST-cRaf RBD brings the Tb and XL665 into close proximity enabling an increased FRET signal (Ex337 nm, Em665 nm/620 nm). The inhibition percentage of nucleotide exchange reaction in presence of increasing concentrations of compounds was calculated based on the ratio of fluorescence at 665 nm to that at 620 nm detected on a BMG PHERAstar FSX instrument. The IC50 value of each compound was calculated from fitting the data to the four-parameter logistic model by Dotmatics.

[1] = inhibition of nucleotide exchange

Sequence of KRAS (aa 1-169) G12C, C51S, C80L, C118S (P01116 other isoform, or with tags, fused parts or gaps G12C/C51S/C80L/C118S): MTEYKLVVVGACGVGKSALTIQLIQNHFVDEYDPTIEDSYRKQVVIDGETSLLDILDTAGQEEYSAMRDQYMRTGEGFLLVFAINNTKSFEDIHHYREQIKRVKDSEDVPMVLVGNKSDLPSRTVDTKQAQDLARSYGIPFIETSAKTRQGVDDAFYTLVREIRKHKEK

| SMILES | IC50 [1] [µM] | IC50 (bound in uM) [µM] |
| --- | --- | --- |
| C=CC(=O)N1CCN(c2nc(N3CC(N(C)C)C3)nc3cc(-c4c(O)cccc4F)c4c(c23)OCCC4)CC1 [Compound B7, 1-(4-(8-(3-(dimethylamino)azetidin-1-yl)-5-(2-fluoro-6-hydroxyphenyl)-3,4-dihydro-2H-pyrano[2,3-f]quinazolin-10-yl)piperazin-1-yl)prop-2-en-1-one] | 1.09 | – |
| C=C(F)C(=O)N1CCN(c2nc(N3CC(N(C)C)C3)nc3cc(-c4c(O)cccc4F)c4c(c23)OCCC4)C[C@@H]1CC#N [Compound B8, 2-((2S)-4-(8-(3-(dimethylamino)azetidin-1-yl)-5-(2-fluoro-6-hydroxyphenyl)-3,4-dihydro-2H-pyrano[2,3-f]quinazolin-10-yl)-1-(2-fluoroacryloyl)piperazin-2-yl)acetonitrile] | 0.255 | – |
| C=C(F)C(=O)N1CCN(c2nc(N3CC(N(C)C)C3)nc3cc(-c4cccc(F)c4F)c4c(c23)OCCC4)C[C@@H]1CC#N [Compound B9, (S)-2-(4-(5-(2,3-difluorophenyl)-8-(3-(dimethylamino)azetidin-1-yl)-3,4-dihydro-2H-pyrano[2,3-f]quinazolin-10-yl)-1-(2-fluoroacryloyl)piperazin-2-yl)acetonitrile] | 0.456 | – |
| C=CC(=O)N1CCN(c2nc(N3CC(N(C)C)C3)nc3cc(-c4cccc5ccccc45)c4c(c23)OCCC4)CC1 [Compound B10, 1-(4-(8-(3-(dimethylamino)azetidin-1-yl)-5-(naphthalen-1-yl)-3,4-dihydro-2H-pyrano[2,3-f]quinazolin-10-yl)piperazin-1-yl)prop-2-en-1-one] | 0.235 | – |
| C=C(F)C(=O)N1CCN(c2nc(OC[C@@H]3CCCN3C)nc3cc(-c4c(Cl)c(C)cc5[nH]ncc45)c4c(c23)OCCC4)C[C@@H]1CC#N [Compound B11, 2-((2S)-4-(5-(5-chloro-6-methyl-1H-indazol-4-yl)-8-(((S)-1-methylpyrrolidin-2-yl)methoxy)-3,4-dihydro-2H-pyrano[2,3-f]quinazolin-10-yl)-1-(2-fluoroacryloyl)piperazin-2-yl)acetonitrile] | 0.00781 | – |
| C=CC(=O)N1CCN(c2nc(OC[C@@H]3C[C@@H](F)CN3C)nc3cc(-c4cccc(F)c4F)c4c(c23)OCCC4)CC1 [Compound B14, 1-(4-(5-(2,3-difluorophenyl)-8-(((2S,4R)-4-fluoro-1-methylpyrrolidin-2-yl)methoxy)-3,4-dihydro-2H-pyrano[2,3-f]quinazolin-10-yl)piperazin-1-yl)prop-2-en-1-one] | – | > 10 |
| C=CC(=O)N1CCN(c2nc(OC[C@@H]3C[C@@H](F)CN3C)nc3cc(-c4c(Cl)c(C)cc5[nH]ncc45)c4c(c23)OCCC4)CC1 [Compound B15, 1-(4-(5-(5-chloro-6-methyl-1H-indazol-4-yl)-8-(((2S,4R)-4-fluoro-1-methylpyrrolidin-2-yl)methoxy)-3,4-dihydro-2H-pyrano[2,3-f]quinazolin-10-yl)piperazin-1-yl)prop-2-en-1-one] | 0.107 | – |
| C=CC(=O)N1CCN(c2nc(N3CC(N(C)C)C3)nc3cc(-c4ccccc4F)c4c(c23)OCCC4)CC1 [Compound B16, 1-(4-(8-(3-(dimethylamino)azetidin-1-yl)-5-(2-fluorophenyl)-3,4-dihydro-2H-pyrano[2,3-f]quinazolin-10-yl)piperazin-1-yl)prop-2-en-1-one] | – | > 10 |
| C=CC(=O)N1CCN(c2nc(N3CC(N(C)C)C3)nc3cc(-c4cccc(Cl)c4)c4c(c23)OCCC4)CC1 [Compound B17, 1-(4-(5-(3-chlorophenyl)-8-(3-(dimethylamino)azetidin-1-yl)-3,4-dihydro-2H-pyrano[2,3-f]quinazolin-10-yl)piperazin-1-yl)prop-2-en-1-one] | – | > 10 |
| C=CC(=O)N1CCN(c2nc(N3CC(N(C)C)C3)nc3cc(-c4ccccc4C)c4c(c23)OCCC4)CC1 [Compound B18, 1-(4-(8-(3-(dimethylamino)azetidin-1-yl)-5-(o-tolyl)-3,4-dihydro-2H-pyrano[2,3-f]quinazolin-10-yl)piperazin-1-yl)prop-2-en-1-one] | – | > 10 |
| C=CC(=O)N1CCN(c2nc(N3CC(N(C)C)C3)nc3cc(-c4ccccc4C#N)c4c(c23)OCCC4)CC1 [Compound B19, 2-(10-(4-acryloylpiperazin-1-yl)-8-(3-(dimethylamino)azetidin-1-yl)-3,4-dihydro-2H-pyrano[2,3-f]quinazolin-5-yl)benzonitrile] | – | > 10 |
| C=C(F)C(=O)N1CCN(c2nc(OC[C@@H]3C[C@@H](OC)CN3C)nc3cc(-c4cccc5cccc(Cl)c45)c4ccoc4c23)C[C@@H]1CC#N [Compound B20, 2-((S)-4-(4-(8-chloronaphthalen-1-yl)-7-(((2S,4R)-4-methoxy-1-methylpyrrolidin-2-yl)methoxy)furo[2,3-f]quinazolin-9-yl)-1-(2-fluoroacryloyl)piperazin-2-yl)acetonitrile] | 0.016 | – |
| C=CC(=O)N1CCN(c2nc(N3CC(N(C)C)C3)nc3cc(-c4ccccc4Cl)c4c(c23)OCCC4)CC1 [Compound B21, 1-(4-(5-(2-chlorophenyl)-8-(3-(dimethylamino)azetidin-1-yl)-3,4-dihydro-2H-pyrano[2,3-f]quinazolin-10-yl)piperazin-1-yl)prop-2-en-1-one] | – | > 10 |
| C=CC(=O)N1CCN(c2nc(N3CC(N(C)C)C3)nc3cc(-c4ccccc4C(F)(F)F)c4c(c23)OCCC4)CC1 [Compound B22, 1-(4-(8-(3-(dimethylamino)azetidin-1-yl)-5-(2-(trifluoromethyl)phenyl)-3,4-dihydro-2H-pyrano[2,3-f]quinazolin-10-yl)piperazin-1-yl)prop-2-en-1-one] | 0.568 | – |
| C=CC(=O)N1CCN(c2nc(N(C)CCN(C)C)nc3cc(-c4cccc5cccc(Cl)c45)c4c(c23)OCCC4)CC1 [Compound B23, 1-(4-(5-(8-chloronaphthalen-1-yl)-8-((2-(dimethylamino)ethyl)(methyl)amino)-3,4-dihydro-2H-pyrano[2,3-f]quinazolin-10-yl)piperazin-1-yl)prop-2-en-1-one] | 0.202 | – |
| C=CC(=O)N1CCN(c2nc(N3CCN(C)CC3)nc3cc(-c4cccc5cccc(Cl)c45)c4c(c23)OCCC4)CC1 [Compound B24, 1-(4-(5-(8-chloronaphthalen-1-yl)-8-(4-methylpiperazin-1-yl)-3,4-dihydro-2H-pyrano[2,3-f]quinazolin-10-yl)piperazin-1-yl)prop-2-en-1-one] | – | > 10 |
| C=CC(=O)N1CCN(c2nc(N3CCC(N(C)C)C3)nc3cc(-c4c(Cl)c(C)cc5[nH]ncc45)c4c(c23)OCCC4)CC1 (stereo not drawn) [Compound B25, 1-(4-(5-(5-chloro-6-methyl-1H-indazol-4-yl)-8-(3-(dimethylamino)pyrrolidin-1-yl)-3,4-dihydro-2H-pyrano[2,3-f]quinazolin-10-yl)piperazin-1-yl)prop-2-en-1-one] | 0.138 | – |
| C=CC(=O)N1CCN(c2nc(N3CC(CN(C)C)C3)nc3cc(-c4cccc5cccc(Cl)c45)c4c(c23)OCCC4)CC1 [Compound B26, 1-(4-(5-(8-chloronaphthalen-1-yl)-8-(3-((dimethylamino)methyl)azetidin-1-yl)-3,4-dihydro-2H-pyrano[2,3-f]quinazolin-10-yl)piperazin-1-yl)prop-2-en-1-one] | 0.239 | – |
